Patent publication US20230277491A1, “PHARMACEUTICAL COMBINATION COMPRISING GLYCOLIC ACID AND L-ALANINE” (priority 2020, published 2023)

How the values were obtained:
[1] = system: HeLa cells; test: Intracellular calcium, Fluo4-AM loaded HeLa cells, fluorescent plate reader; assay type: cell-based; conditions: FIG. 12
Source text: HeLa cells were loaded with Fluo4-AM and fluorescence was monitored with the help of a fluorescent plate reader. Values are normalized to the initial fluorescent value.

[2] = system: DJ-1 RNAi depleted HeLa cells; conditions: DJ-1 RNAi depleted HeLa cells or paraquat challenge; cited from earlier work
[3] = system: HeLa cells; test: NAD(P)H live-cell microscopy; assay type: cell-based; conditions: 5 mM, FIG. 13
Procedure: All values were referenced to the value obtained before substance addition.
NAD(P)H live-cell microscopy on HeLa cells was performed as previously described. Briefly, NAD(P)H fluorescence intensity time series were performed on a ZEISS LSM880 inverted confocal equipped with an incubation chamber to maintain 37 Celsius degree and 5% of CO2. […] In order to maximize the transmission efficiency of the system in excitation and detection and reduce the aberrations due to the watery environment, a ZEISS Plan C-ApoChromat 40×/1.2 Water lens with depth compensating correction collar was used. […] The sampling factor in XY (pixel size) of each image was equal to 208 nm, which lead to a final resolution of approximately 600 nm. For each image a volume of 5 μm around the specimen central plane was taken by acquiring 3 planes separated by a Z-step of 2.5 μm.
Time series measurements were obtained with 5 min time resolution. Fluorescence intensity levels were extracted using FIJI Image Analysis Freeware

[4] = system: dopaminergic neurons; test: Survival of dopaminergic neurons with paraquat 12.5 μM challenge (Example 5, FIGS. 19, 20); assay type: cell-based, mouse; conditions: for number of TH positive neurons normalized to the control treatment: FIG. 19
Procedure: Dopaminergic neurons were isolated and plated at a concentration of 1.000.000 cells/ml (100 μl/well) in a 96 well plate and cultured in medium with one or more of the various factors indicated, as described in the examples below. The survival of dopaminergic neurons in the presence and absence of various agents of the invention, either with or without paraquat challenge, is shown by the number of TH positive neurons normalized to the control treatment.
Dopaminergic neurons were isolated and plated at a concentration of 1.000.000 cells/ml (100 μl/well) in a 96 well plate. After 3-4 hours incubation at 37° C., 20 μl of medium was removed from each well. (VF=80 μl). Changes in medium and start point of the treatment were on the following day in vitro (DIV). The following protocol was employed to assess the survival of dopaminergic neurons in the presence and absence of various agents of the inventive combination, either with or without paraquat challenge. • DIV.1: Change half of medium N2 (40 μl) with fresh medium N2. • DIV.3: Change half of the medium and start with medium (control) or with medium A containing PB (0.15 mM) and TUDCA (0.5 mM), or with Medium A containing GA (normally 1 mM, 3 mM, or 10 mM) or with Medium A containing GA (1 mM or 3 mM) and PB (0.15 mM) or with Medium A containing GA (5 mM) and TUDCA (0.5 mM) or with Medium A containing PB (0.15 mM). Medium A is N2 medium but without FBS and N2-Supplement. • DIV.5: Second round of control or treatment with different treatments. Half of the medium (40 μl) was replaced by fresh medium A with the different agents. • DIV.7: Paraquat 12.5 μM treatment starts alone or in combination with the treatments explained above. Half of the medium (40 μl) was replaced by fresh medium A with the different treatment combinations or without (control). • DIV.9: Second day of treatment with Paraquat (PQ) 12.5 μM in addition to the other treatments as explained above. • DIV.11: Fixation 2% of PFA during 20 min at 37° C. or overnight at 4° C.
The effect of the different treatments on dopaminergic neurons survival upon exposure to paraquat was assessed through of TH+ neurons after treatment. Briefly, neurons were fixed using 2% paraformaldehyde for immunocytochemical analysis after treatment. Dopaminergic TH^+ neurons per well were identified and counted using an inverted fluorescence microscope (Olympus) under a 20× objective.

[5] = system: PARK-7 −/− HeLa cells; test: Cell growth of PARK-7 −/− HeLa cells; assay type: cell-based, human; conditions: 5 mM, FIG. 16
Procedure: GA enhances cell proliferation in PARK-7 −/− HeLa cells. […] Knocking-down PARK-7 with CRISP/Cas-9 leads to a reduced cell proliferation when compared to WT cells. […] Treatment with GA increases cell proliferation in HeLa cells.
Cell growth was determined by two different methods. The first method (WST1-Assay) was used to analyze cell growth at different time points using the same plates: 500 cells of 8 different PARK7 KO clones and HeLa Kyoto wild type cells were seeded in 96 well plates (6 wells/line). For each time point (0 h, 48 h, 122 h, and 144 h), WST1 was added to the cells according to the manufacturers instructions and incubated for 30 min at 37° C. Absorbance was measured at 450 nm and 620 nm using an EnVision Plate Reader (PerkinElmer).
The second method was used to analyze the rescue effect of GA and DL. Briefly, HeLa cells were seeded and treated with medium containing distilled water, 5 mM GA, or 5 mM DL. 48 hours later, the number of living cells was calculated with the help of an automated cell counter (ThermoFischer, USA).
HeLa-Kyoto PARK7 KO clones had been kindly provided by Martin Stewart (Koch Institute, MIT, Cambridge, USA). Briefly, cells were electroporated with the NEON device (Invitrogen) using a sgRNA-Cas9-NLS complex targeting human PARK7 at exon 1. […]

[6] = human, in vivo
Procedure: Preliminary pharmacokinetic analyses were undertaken in order to determine whether the GA and DL administered to the patients orally were absorbed into the blood stream and into the CSF. […] As can also be observed, DL levels reach 140 mg/L in the blood 1-hour post-administration and are reduced to approx. 20 mg/I after 2- or 3-hours post-administration.
As can be observed in FIG. 9, GA levels are approximately 20 mg/I in the CSF 1-hour post-administration. As can also be observed, DL levels are approximately 5 mg/I in the CSF 1-hour post-administration. 100 mg/kg GA and 100 mg/kg DL was administered in patients to obtain the pharmacokinetic data.

## O=C(O)CO [GA, 2-hydroxyethanoic acid]
[1]
  intracellular calcium (Fluo4-AM fluorescence normalized to initial value): reduce intracellular calcium
[2]
  mitochondrial potential: maintain or rescue mitochondrial potential
[3]
  mitochondrial NAD(P)H production: increases mitochondrial NAD(P)H production
[4]; PQ 12.5 μM + 1 mM GA
  number of TH positive neurons normalized to the control treatment: 0.65
[4]; PQ 12.5 μM + 3 mM GA
  number of TH positive neurons normalized to the control treatment: 0.71
[4]; PQ 12.5 μM + 5 mM GA alone
  survival of dopaminergic neurons (rescue): certain rescue
[5]
  cell proliferation (number of cells after 48 hours): rescues cell proliferation defects
[6]
  GA dose at which the concentration of GA in the blood is too low: lower than 50 mg/kg
  concentration in the CSF: ca. 0.33 mM
  concentration in the blood: 2 mM
  concentration in the cerebrospinal fluid relative to blood (lower): about 1:6
